Values of other authors as cited in US20010034023A1, “Gene sequence variations with utility in determining the treatment of disease, in genes relating to drug processing” (priority 1999, published 2001).
Structures can show the parent of a compound that is named as a salt.

What was measured:
[1] = PDR
[2] = tested on: hepatitis C virus infection
[3] = high dose
[4] = not given; remark: listed apart in the source
[5] = Alzheimer's patients receiving Cognex

Question: Which results are given for Nc1c2c(nc3ccccc13)CCCC2 [Cognex, tacrine hydrochloride]?
Answer: patients showing no change or minimal worsening of their disease ([1]; Alzheimer's disease patients receiving Cognex): about 45%; patients minimally improved [1, 5]: About 58%; patients much improved [1, 5]: about 2%

Question: Which results are given for NNC(=O)c1ccncc1 [INH, Isoniazid]?
Answer: persons in whom subclinical liver injury occurs (persons taking INH): 10-20%; hepatotoxicity in slow acetylators (slow acetylators): more hepatotoxic

Question: For interferon alpha, which “patients in whom viral infection is completely and permanently eliminated” value [2] is on record?
Answer: less than a quarter of patients

Question: And the “patients receiving virtually no benefit” value [2]?
Answer: Nearly half of patients

Question: For CC(=O)Nc1ccc(O)cc1 [Acetominophen], which “dose required for significant liver injury to occur” value [3] is on record?
Answer: 10-15 grams

Question: Which results are given for O=c1[nH]cc(F)c(=O)[nH]1 [5-fluorouracil]?
Answer: patients with an objective response to the drug ([4]; advanced colorectal cancer): 20-40%; patients with a complete response (complete tumor disappearance) ([4]; advanced colorectal cancer, of the objective responders): 1-5%; patients suffering serious gastrointestinal or hematopoietic toxicity ([4]; up to, depending on the regimen): 20-30%
